Source: patent US8822503B2, “2-pyridone compounds” (Taisho Pharmaceutical Co., Ltd, priority 2009, dated 2014)

Target: T1, human liver GK (Homo sapiens, UniProt P35557)
T1 construct: GST (glutathione S-transferase) (N); made in house; host or cells: E. coli
T1 sequence (P35557 1-466 isoform P35557-2): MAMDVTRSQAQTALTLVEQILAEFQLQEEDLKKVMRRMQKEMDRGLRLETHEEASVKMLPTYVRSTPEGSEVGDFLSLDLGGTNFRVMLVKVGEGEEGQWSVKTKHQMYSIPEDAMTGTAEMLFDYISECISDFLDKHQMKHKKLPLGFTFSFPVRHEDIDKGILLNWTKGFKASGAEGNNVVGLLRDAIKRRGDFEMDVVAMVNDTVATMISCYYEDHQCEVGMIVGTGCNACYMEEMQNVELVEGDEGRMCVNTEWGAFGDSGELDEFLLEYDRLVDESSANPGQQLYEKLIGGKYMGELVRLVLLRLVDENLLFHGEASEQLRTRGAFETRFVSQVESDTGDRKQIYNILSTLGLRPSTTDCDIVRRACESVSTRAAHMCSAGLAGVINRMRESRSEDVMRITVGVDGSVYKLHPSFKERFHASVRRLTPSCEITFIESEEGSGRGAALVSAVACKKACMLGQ
Test: GK activation test
Format: biochemical
Conditions: test compound concentration needed to activate 50% of maximum activation ability; 4 mM 14C-labeled glucose, 2 mM ATP, room temperature, 20 minutes
Method in brief: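 GST-tagged human liver GK from E. coli (0.24 μg/well) with 4 mM 14C-glucose, 2 mM ATP in Hepes-KOH pH 7.1, KCl, MgCl2, DTT, 1% DMSO, 20 min room temperature. Labeled glucose 6-phosphate captured on anion resin, eluted and counted. EC50 = concentration giving half of maximal activation.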

## O=C1CC[C@H](/C=C(\c2cccc(SC3CC3)c2)c2ccc(Cl)c(=O)[nH]2)N1 [Example 4-36, 3-Chloro-6-{(E)-1-[3-(cyclopropylsulfanyl)phenyl]-2-[(2R)-5-oxopyrrolidin-2-yl]ethenyl}pyridin-2(1H)-one]
  EC50: 3000 to 10000 nM

## O=C1CC[C@H](/C=C(\c2ccc(SC3CC3)cc2)c2ccc(Cl)c(=O)[nH]2)N1 [Example 4-37, 3-Chloro-6-{(E)-1-[4-(cyclopropylsulfanyl)phenyl]-2-[(2R)-5-oxopyrrolidin-2-yl]ethenyl}pyridin-2(1H)-one]
  EC50: 10 to 500 nM

## O=C1CC[C@H](/C=C(\c2ccc(OCCCCO)c(Cl)c2)c2ccc(Cl)c(=O)[nH]2)N1 [Example 4-38, 3-Chloro-6-{(E)-1-[3-chloro-4-(4-hydroxybutoxy)phenyl]-2-[(2R)-5-oxopyrrolidin-2-yl]ethenyl}pyridin-2(1H)-one]
  EC50: 10 to 500 nM

## CSc1ccc(/C(=C\[C@H]2CCN(C(C)=O)C2)c2ccc(C3CC3)c(=O)[nH]2)cc1 [Example 4-39, 6-{(E)-2-[(3R)-1-Acetylpyrrolidin-3-yl]-1-[4-(methylsulfanyl)phenyl]ethenyl}-3-cyclopropylpyridin-2(1H)-one]
  EC50: 10 to 500 nM

## CCc1ccc(/C(=C\[C@H]2CCN(C(C)=O)C2)c2ccc(Cl)c(=O)[nH]2)cc1 [Example 4-40, 6-[(E)-2-[(3R)-1-Acetylpyrrolidin-3-yl]-1-(4-ethylphenyl)ethenyl]-3-chloropyridin-2(1H)-one]
  EC50: 500 to 3000 nM

## CCOc1ccc(/C(=C\[C@H]2CCN(C(C)=O)C2)c2ccc(Cl)c(=O)[nH]2)cc1Cl [Example 4-41, 6-[(E)-2-[(3R)-1-Acetylpyrrolidin-3-yl]-1-(3-chloro-4-ethoxyphenyl)ethenyl]-3-chloropyridin-2(1H)-one]
  EC50: 500 to 3000 nM

## CSc1ccc(/C(=C\C2CCN(C(C)=O)CC2)c2ccc(C3CC3)c(=O)[nH]2)cc1 [Example 4-42, 6-{(E)-2-(1-Acetylpiperidin-4-yl)-1-[4-(methylsulfanyl)phenyl]ethenyl}-3-cyclopropylpyridin-2(1H)-one]
  EC50: 3000 to 10000 nM

## CC(=O)N1CCC(/C=C(\c2ccc(S(C)(=O)=O)cc2)c2ccc(C3CC3)c(=O)[nH]2)CC1 [Example 4-43, 6-{(E)-2-(1-Acetylpiperidin-4-yl)-1-[4-(methylsulfonyl)phenyl]ethenyl}-3-cyclopropylpyridin-2(1H)-one]
  EC50: 3000 to 10000 nM

## CSc1ccc(/C(=C\C2CN(C(C)=O)C2)c2ccc(C3CC3)c(=O)[nH]2)cc1 [Example 4-44, 6-{(E)-2-(1-Acetylazetidin-3-yl)-1-[4-(methylsulfanyl)phenyl]ethenyl}-3-cyclopropylpyridin-2(1H)-one]
  EC50: 500 to 3000 nM

## CSc1ccc(/C(=C\[C@H]2CCC(=O)N2C)c2ccc(C3CC3)c(=O)[nH]2)cc1 [Example 4-45, 3-Cyclopropyl-6-{(E)-2-[(2R)-1-methyl-5-oxopyrrolidin-2-yl]-1-[4-(methylsulfanyl)phenyl]ethenyl}pyridin-2(1H)-one]
  EC50: 10 to 500 nM

## CCc1ccc(/C(=C\[C@H]2CCCN2C(C)=O)c2ccc(Cl)c(=O)[nH]2)cc1 [Example 4-47, 6-[(E)-2-[(2R)-1-Acetylpyrrolidin-2-yl]-1-(4-ethylphenyl)ethenyl]-3-chloropyridin-2(1H)-one]
  EC50: 500 to 3000 nM

## CCOc1ccc(/C(=C\[C@H]2CCC(=O)N2)c2ccc(Cl)c(=O)[nH]2)cc1 [Example 4-48, 3-Chloro-6-{(E)-1-(4-ethoxyphenyl)-2-[(2R)-5-oxopyrrolidin-2-yl]ethenyl}pyridin-2(1H)-one]
  EC50: 500 to 3000 nM

## CCOc1ccc(/C(=C\[C@H]2CCC(=O)N2)c2ccc(Cl)c(=O)[nH]2)cc1F [Example 4-49, 3-Chloro-6-{(E)-1-(4-ethoxy-3-fluorophenyl)-2-[(2R)-5-oxopyrrolidin-2-yl]ethenyl}pyridin-2(1H)-one]
  EC50: 500 to 3000 nM

## CCOc1ccc(/C(=C\[C@H]2CCC(=O)N2)c2ccc(Cl)c(=O)[nH]2)cc1C [Example 4-50, 3-Chloro-6-{(E)-1-(4-ethoxy-3-methylphenyl)-2-[(2R)-5-oxopyrrolidin-2-yl]ethenyl}pyridin-2(1H)-one]
  EC50: 500 to 3000 nM

## CCOc1ccc(/C(=C\[C@H]2CCC(=O)N2)c2ccc(Cl)c(=O)[nH]2)cc1C(F)(F)F [Example 4-51, 3-Chloro-6-{(E)-1-[4-ethoxy-3-(trifluoromethyl)phenyl]-2-[(2R)-5-oxopyrrolidin-2-yl]ethenyl}pyridin-2(1H)-one]
  EC50: 500 to 3000 nM

## Cc1cc(/C(=C\[C@H]2CCC(=O)N2)c2ccc(Cl)c(=O)[nH]2)ccc1OCCCO [Example 4-52, 3-Chloro-6-{(E)-1-[4-(3-hydroxypropoxy)-3-methylphenyl]-2-[(2R)-5-oxopyrrolidin-2-yl]ethenyl}pyridin-2(1H)-one]
  EC50: 500 to 3000 nM

## CS(=O)(=O)c1ccc(/C(=C\[C@H]2CCC(=O)N2)c2ccc(C3CC3)c(=O)[nH]2)cc1 [Example 4-53, 3-Cyclopropyl-6-{(E)-1-[4-(methylsulfonyl)phenyl]-2-[(2R)-5-oxopyrrolidin-2-yl]ethenyl}pyridin-2(1H)-one]
  EC50: 10 to 500 nM

## Cc1cc(/C(=C\[C@H]2CCC(=O)N2)c2ccc(C3CC3)c(=O)[nH]2)ccc1S(=O)(=O)C1CC1 [Example 4-54, 3-Cyclopropyl-6-{(E)-1-[4-(cyclopropylsulfonyl)-3-methylphenyl]-2-[(2R)-5-oxopyrrolidin-2-yl]ethenyl}pyridin-2(1H)-one]
  EC50: 10 to 500 nM

## Cc1cc(/C(=C\[C@H]2CCC(=O)N2)c2ccc(Cl)c(=O)[nH]2)ccc1S(=O)(=O)C1CC1 [Example 4-55, 3-Chloro-6-{(E)-1-[4-(cyclopropylsulfonyl)-3-methylphenyl]-2-[(2R)-5-oxopyrrolidin-2-yl]ethenyl}pyridin-2(1H)-one]
  EC50: 10 to 500 nM

## CS(=O)(=O)c1ccc(/C(=C\[C@H]2CCC(=O)N2)c2ccc(Cl)c(=O)[nH]2)cc1C(F)(F)F [Example 4-56, 3-Chloro-6-{(E)-1-[4-(methylsulfonyl)-3-(trifluoromethyl)phenyl]-2-[(2R)-5-oxopyrrolidin-2-yl]ethenyl}pyridin-2(1H)-one]
  EC50: 500 to 3000 nM

## O=C1CC[C@H](/C=C(\c2ccc(S(=O)(=O)C3CC3)cc2)c2ccc(Cl)c(=O)[nH]2)N1 [Example 4-57, 3-Chloro-6-{(E)-1-[4-(cyclopropylsulfonyl)phenyl]-2-[(2R)-5-oxopyrrolidin-2-yl]ethenyl}pyridin-2(1H)-one]
  EC50: 10 to 500 nM

## CCS(=O)(=O)c1ccc(/C(=C\[C@H]2CCC(=O)N2)c2ccc(Cl)c(=O)[nH]2)cc1Cl [Example 4-58, 3-Chloro-6-{(E)-1-[3-chloro-4-(ethylsulfonyl)phenyl]-2-[(2R)-5-oxopyrrolidin-2-yl]ethenyl}pyridin-2(1H)-one]
  EC50: 500 to 3000 nM

## O=C1CC[C@H](/C=C(\c2ccc(S(=O)(=O)C3CC3)c(Cl)c2)c2ccc(Cl)c(=O)[nH]2)N1 [Example 4-59, 3-Chloro-6-{(E)-1-[3-chloro-4-(cyclopropylsulfonyl)phenyl]-2-[(2R)-5-oxopyrrolidin-2-yl]ethenyl}pyridin-2(1H)-one]
  EC50: 10 to 500 nM

## O=C1CC[C@H](/C=C(\c2ccc(S(=O)(=O)C3CCCC3)cc2)c2ccc(Cl)c(=O)[nH]2)N1 [Example 4-60, 3-Chloro-6-{(E)-1-[4-(cyclopentylsulfonyl)phenyl]-2-[(2R)-5-oxopyrrolidin-2-yl]ethenyl}pyridin-2(1H)-one]
  EC50: 10 to 500 nM

## CN1CCN(S(=O)(=O)c2ccc(/C(=C\[C@H]3CCC(=O)N3)c3ccc(Cl)c(=O)[nH]3)cc2)CC1 [Example 4-61, 3-Chloro-6-{(E)-1-{4-[(4-methylpiperazin-1-yl)sulfonyl]phenyl}-2-[(2R)-5-oxopyrrolidin-2-yl]ethenyl}pyridin-2(1H)-one]
  EC50: 500 to 3000 nM

## CCN(CC)CCCCOc1ccc(/C(=C\[C@H]2CCC(=O)N2)c2ccc(C3CC3)c(=O)[nH]2)cc1Cl [Example 4-62, 6-{(E)-1-{3-Chloro-4-[4-(diethylamino)butoxy]phenyl}-2-[(2R)-5-oxopyrrolidin-2-yl]ethenyl}-3-cyclopropylpyridin-2(1H)-one]
  EC50: 10 to 500 nM

## CCN(CC)CCCCOc1ccc(/C(=C\[C@H]2CCC(=O)N2)c2ccc(Cl)c(=O)[nH]2)cc1Cl [Example 4-63, 3-Chloro-6-{(E)-1-{3-chloro-4-[4-(diethylamino)butoxy]phenyl}-2-[(2R)-5-oxopyrrolidin-2-yl]ethenyl}pyridin-2(1H)-one]
  EC50: 500 to 3000 nM

## O=C1CC[C@H](/C=C(\c2ccc(OCCCCN3CCCC3)c(Cl)c2)c2ccc(Cl)c(=O)[nH]2)N1 [Example 4-64, 3-Chloro-6-{(E)-1-{3-chloro-4-[4-(pyrrolidin-1-yl)butoxy]phenyl}-2-[(2R)-5-oxopyrrolidin-2-yl]ethenyl}pyridin-2(1H)-one]
  EC50: 10 to 500 nM

## CCN(CC)CCCOc1ccc(/C(=C\[C@H]2CCC(=O)N2)c2ccc(C3CC3)c(=O)[nH]2)cc1 [Example 4-65, 3-Cyclopropyl-6-{(E)-1-{4-[3-(diethylamino)propoxy]phenyl}-2-[(2R)-5-oxopyrrolidin-2-yl]ethenyl}pyridin-2(1H)-one]
  EC50: 500 to 3000 nM

## CC(C)c1ccc(/C(=C\[C@H]2CCC(=O)N2)c2ccc(C3CC3)c(=O)[nH]2)cc1 [Example 4-67, 3-Cyclopropyl-6-{(E)-2-[(2R)-5-oxopyrrolidin-2-yl]-1-[4-(propan-2-yl)phenyl]ethenyl}pyridin-2(1H)-one]
  EC50: 10 to 500 nM
